For 21 compounds, EC50 results are on record in patent US11110082B2, “Tyrosine kinase inhibitors” (Rigel Pharmaceuticals, Inc., priority 2016, dated 2021).

The assay deals with T1, MerTK (Homo sapiens, UniProt Q12866).
T1 construct: Seed HUVECs (10K cells/well) in EBM-2 complete media; host or cells: HUVEC (primary human umbilical vein endothelial cells)
T1 sequence (Q12866 21-999): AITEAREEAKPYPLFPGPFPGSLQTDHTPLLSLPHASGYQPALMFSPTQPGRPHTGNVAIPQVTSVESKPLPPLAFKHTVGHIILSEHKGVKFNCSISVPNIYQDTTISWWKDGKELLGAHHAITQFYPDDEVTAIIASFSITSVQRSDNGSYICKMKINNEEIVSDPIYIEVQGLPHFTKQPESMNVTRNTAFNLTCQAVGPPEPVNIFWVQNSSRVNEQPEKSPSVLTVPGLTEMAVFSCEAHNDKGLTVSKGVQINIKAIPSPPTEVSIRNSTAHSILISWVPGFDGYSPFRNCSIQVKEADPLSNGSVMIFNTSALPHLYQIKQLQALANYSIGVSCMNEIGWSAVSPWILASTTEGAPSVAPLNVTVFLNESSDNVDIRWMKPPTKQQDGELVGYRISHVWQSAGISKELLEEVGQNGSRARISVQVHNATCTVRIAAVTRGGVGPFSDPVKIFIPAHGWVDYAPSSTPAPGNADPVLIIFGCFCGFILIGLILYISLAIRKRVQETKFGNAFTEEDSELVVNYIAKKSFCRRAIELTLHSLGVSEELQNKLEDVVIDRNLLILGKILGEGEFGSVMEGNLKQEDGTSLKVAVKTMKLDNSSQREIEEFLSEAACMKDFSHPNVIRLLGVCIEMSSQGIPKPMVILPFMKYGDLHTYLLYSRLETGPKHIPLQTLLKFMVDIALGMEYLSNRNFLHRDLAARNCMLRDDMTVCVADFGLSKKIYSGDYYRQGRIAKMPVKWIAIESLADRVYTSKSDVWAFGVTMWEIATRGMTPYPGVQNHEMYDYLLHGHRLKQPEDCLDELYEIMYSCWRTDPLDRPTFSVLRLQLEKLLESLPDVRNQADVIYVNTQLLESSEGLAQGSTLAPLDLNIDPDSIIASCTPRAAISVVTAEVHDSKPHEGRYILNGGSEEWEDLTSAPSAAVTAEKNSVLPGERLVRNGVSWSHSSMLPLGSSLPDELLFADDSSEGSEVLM
In words: PAKT HTRF-HUVEC assay (pAkt Ser473 HTRF after anti-human MerTK-XL stimulation). In kind it is cell-based. To be noted: HUVEC cells, 1 hour compound, stimulated with anti-human MerTK-XL 1 ug/mL for 10 minutes, read-out: inhibition of MerTK. How it is done:
Example 4: PAKT HTRF-HUVEC Assay Phospho Akt (Ser473) Assay kit-10,000 tests (Cisbio US, 64[…]) HUVEC cells (Lonza, CC-2519) Anti-human MerTK antibody (Clone 125518) (R&D Systems, MAB8912) Method Seed HUVECs (10K cells/well) in EBM-2 complete media (EBM-2 basal medium plus EGM-2 BulletKit supplements) overnight at 37° C., 5% CO2 in Costar 96-well white clear-bottom plates. Remove culture media and starve cells for 3-4 hours in 50 μL/well EBM-2 basal medium. Perform serial dilution of compounds in DMSO from 2.5 mM in 4-fold dilutions, and then dilute 1:125 in EBM-2 basal media. Mix 50 μL/well 2x compounds with 50 μL/well HUVECs in duplicate in Costar 96-well white clear-bottom plates. Incubate plates for 1 hour at 37° C., 5% CO2. Cross-link anti-human MerTK antibody to Biotin-SP-conjugated anti-mouse IgG antibody (1:1) to give final concentrations of 5 ug/mL of anti-human MerTK-XL. Stimulate HUVECs with 25 μL/well 5x anti-human MerTK-XL to give final concentrations of 1 ug/mL for 10 minutes at 37° C., 5% CO2. Completely remove media and lyse HUVECs with 40 uL/WELL per well of Cisbio HTRF 1× lysis buffer. Performed pAkt(Ser473) HTRF assay in ProxiPlate-384 Plus, white 384-shallow well microplate according to the vendor protocol and read plates with a SpectralMax Paradigm plate reader. Enter the HTRF values into Athena (Rigel) for curve fitting, EC50 calculation, and database storage.
For orientation: In TR-FRET formats the signal depends on donor and acceptor labels being close together.

With `O=c1c2cc(CN3CCC(N4CCCC4)CC3)ccc2c2cnc(NCC3CC3)nc2n1[C@H]1CC[C@H](O)CC1` [Compound 37, trans-3-((Cyclopropylmethyl)amino)-5-(4-hydroxycyclohexyl)-8-((4-(pyrrolidin-1-yl)piperidin-1-yl)methyl)pyrimido[4,5-c]isoquinolin-6(5H)-one], the EC50 turned out to be 53.8 nM.

For the compound `C[C@]1(O)CC[C@H](n2c(=O)c3cc(CN4CCC(N5CCCC5)CC4)ccc3c3cnc(NCC4CC4)nc32)CC1` [Compound 38, trans-3-((Cyclopropylmethyl)amino)-5-(4-hydroxy-4-methylcyclohexyl)-8-((4-(pyrrolidin-1-yl)piperidin-1-yl)methyl)pyrimido[4,5-c]isoquinolin-6(5H)-one], the EC50 turned out to be 33.3 nM. As for `O=c1c2cc(CN3CCn4ncnc4C3)ccc2c2cnc(NCC3CC3)nc2n1[C@H]1CC[C@H](O)CC1` [Compound 39, trans-3-((Cyclopropylmethyl)amino)-8-((5,6-dihydro-[1,2,4]triazolo[1,5-a]pyrazin-7(8H)-yl)methyl)-5-(4-hydroxycyclohexyl)pyrimido [4,5-c]isoquinolin-6(5H)-one], the EC50 worked out at 64.6 nM.

In the case of `O=c1c2cc(CN3CCN(CC(F)(F)F)CC3)ccc2c2cnc(NCC3CC3)nc2n1[C@H]1CC[C@H](O)CC1` [Compound 40, trans-3-((Cyclopropylmethyl)amino)-5-(4-hydroxycyclohexyl)-8-((4-(2,2,2-trifluoroethyl)piperazin-1-yl)methyl)pyrimido[4,5-c]isoquinolin-6(5H)-one], the EC50 worked out at 50.7 nM.

`O=c1c2cc(CN3CCN(CC(F)F)CC3)ccc2c2cnc(NCC3CC3)nc2n1[C@H]1CC[C@H](O)CC1` [Compound 43, trans-3-((Cyclopropylmethyl)amino)-8-((4-(2,2-difluoroethyl)piperazin-1-yl)methyl)-5-(4-hydroxycyclohexyl)pyrimido[4,5-c]isoquinolin-6(5H)-one]: the EC50 was determined as 51.3 nM. Then `CCCCNc1ncc2c3ccc(CN4CCNCC4)cc3c(=O)n([C@H]3CC[C@H](O)CC3)c2n1` [Compound 44, trans-3-(Butylamino)-5-(4-hydroxycyclohexyl)-8-(piperazin-1-ylmethyl)pyrimido[4,5-c]isoquinolin-6(5H)-one], with 66 nM; and `O=c1c2cc(CN3CCOCC3)ccc2c2cnc(NCC3CC3)nc2n1[C@H]1CC[C@H](O)CC1` [Compound 45, trans-3-((Cyclopropylmethyl)amino)-5-(4-hydroxycyclohexyl)-8-(morpholinomethyl)pyrimido [4,5-c]isoquinolin-6(5H)-one], with 149 nM. With `C[C@]1(O)CC[C@H](n2c(=O)c3cc(CN4CCOCC4)ccc3c3cnc(NCC4CC4)nc32)CC1` [Compound 46, trans-3-((Cyclopropylmethyl)amino)-5-(4-hydroxy-4-methylcyclohexyl)-8-(morpholinomethyl)pyrimido [4,5-c]isoquinolin-6(5H)-one], the EC50 is 116 nM. As for `O=c1c2cc(CN3CCS(=O)(=O)CC3)ccc2c2cnc(NCC3CC3)nc2n1[C@H]1CC[C@H](O)CC1` [Compound 49, trans-3-((Cyclopropylmethyl)amino)-8-((1,1-dioxidothiomorpholino)methyl)-5-(4-hydroxycyclohexyl)pyrimido [4,5-c]isoquinolin-6(5H)-one], the EC50 turned out to be 221 nM. On to `CCOC(=O)C1CCN(Cc2ccc3c(c2)c(=O)n([C@H]2CC[C@H](O)CC2)c2nc(NCC4CC4)ncc32)CC1` [Compound 50, trans-Ethyl 1-((3-((Cyclopropylmethyl)amino)-5-(4-hydroxycyclohexyl)-6-oxo-5,6-dihydropyrimido[4,5-c]isoquinolin-8-yl)methyl)piperidine-4-carboxylate], for which the EC50 worked out at 25.9 nM. `O=c1c2cc(CN3CC[S+]([O-])CC3)ccc2c2cnc(NCC3CC3)nc2n1[C@H]1CC[C@H](O)CC1` [Compound 52, trans-3-((cyclopropylmethyl)amino)-5-(4-hydroxycyclohexyl)-8-((1-oxidothiomorpholino)methyl) pyrimido[4,5-c]isoquinolin-6(5H)-one]: the EC50 amounted to 401 nM. With `O=c1c2cc(CN3CCSCC3)ccc2c2cnc(NCC3CC3)nc2n1[C@H]1CC[C@H](O)CC1` [Compound 53, trans-3-((Cyclopropylmethyl)amino)-5-(4-hydroxycyclohexyl)-8-(thiomorpholinomethyl)pyrimido [4,5-c]isoquinolin-6(5H)-one], the EC50 stood at 36.3 nM. The figure for `O=c1c2cc(CN3CCNCC3)ccc2c2cnc(NCC3CC3)nc2n1[C@H]1CC[C@H](O)CC1` [Compound 54, trans-3-((Cyclopropylmethyl)amino)-5-(4-hydroxycyclohexyl)-8-(piperazin-1-ylmethyl)pyrimido[4,5-c]isoquinolin-6(5H)-one] is 309 nM; for `CC(C)CNc1ncc2c3ccc(CN4CCN(C)CC4)cc3c(=O)n([C@H]3CC[C@H](O)CC3)c2n1` [Compound 56, trans-5-(4-Hydroxycyclohexyl)-3-(isobutylamino)-8-((4-methylpiperazin-1-yl)methyl)pyrimido[4,5-c]isoquinolin-6(5H)-one] it is 51.2 nM; for `O=c1c2cc(CN3CCN4CCC3CC4)ccc2c2cnc(NCC3CC3)nc2n1[C@H]1CC[C@H](O)CC1` [Compound 58, trans-8-((1,4-Diazabicyclo[3.2.2]nonan-4-yl)methyl)-3-((cyclopropylmethyl)amino)-5-(4-hydroxycyclohexyl)pyrimido [4,5-c]isoquinolin-6(5H)-one] it is 115 nM. For `CN1CCN(Cc2ccc3c(c2)c(=O)n([C@H]2CC[C@H](OC(N)=O)CC2)c2nc(NCC4CC4)ncc32)CC1` [Compound 59, trans-4-(3-((Cyclopropylmethyl)amino)-8-((4-methylpiperazin-1-yl)methyl)-6-oxopyrimido[4,5-c]isoquinolin-5(6H)-yl)cyclohexyl carbamate], the EC50 amounted to 292 nM. The figure for `CC(C)(C)N1CCN(Cc2ccc3c(c2)c(=O)n([C@H]2CC[C@H](O)CC2)c2nc(NCC4CC4)ncc32)CC1` [Compound 60, trans-8-((4-(tert-butyl)piperazin-1-yl)methyl)-3-((cyclopropylmethyl)amino)-5-(4-hydroxycyclohexyl)pyrimido [4,5-c]isoquinolin-6(5H)-one] is 4.2 nM; for `CCCCNc1ncc2c3ccc(N4CCN(C)CC4)cc3c(=O)n([C@H]3CC[C@H](O)CC3)c2n1` [Compound 61, trans-3-(Butylamino)-5-(4-hydroxycyclohexyl)-8-(4-methylpiperazin-1-yl)pyrimido[4,5-c]isoquinolin-6(5H)-one] it is 23.1 nM. With `CCCCNc1ncc2c3ccc(N4CCOCC4)cc3c(=O)n([C@H]3CC[C@H](O)CC3)c2n1` [Compound 62, trans-3-(Butylamino)-5-(4-hydroxycyclohexyl)-8-morpholinopyrimido[4,5-c]isoquinolin-6(5H)-one], the EC50 is 95.2 nM. The figure for `CCCCNc1ncc2c3ccc(N4CCN(C)CC4)cc3c(=O)n([C@H]3CC[C@@H](O)CC3)c2n1` [Compound 63, cis-3-(Butylamino)-5-(4-hydroxycyclohexyl)-8-(4-methylpiperazin-1-yl)pyrimido[4,5-c]isoquinolin-6(5H)-one] is 138 nM; for `CCCCNc1ncc2c3ccc(N4CCN(C)CC4)cc3c(=O)n(CC3CCC(N)CC3)c2n1` (stereo not drawn) [Compound 65, 5-((4-Aminocyclohexyl)methyl)-3-(butylamino)-8-(4-methylpiperazin-1-yl)pyrimido[4,5-c]isoquinolin-6(5H)-one] it is 78.3 nM.
